From PubChem BioAssay (NCI)
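Where inhibition never reached the appropriate level, the endpoint shown equals the highest concentration tested. Otherwise, values were interpolated linearly from a five-concentration, 48-hour dose response in 96-well plates. Here, GI50 denotes the concentration required for 50% inhibition of growth. TGI is the concentration that stops growth completely.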

Key:
Experiment in all cases: NCI anticancer screen, dose series, 48 h
OVCAR-4 ovarian = test system: OVCAR-4 ovarian
K-562 leukemia = test system: K-562 leukemia
OVCAR-3 ovarian = test system: OVCAR-3 ovarian
LOX IMVI melanoma = test system: LOX IMVI melanoma
COLO 205 colon = test system: COLO 205 colon
SK-MEL-2 melanoma = test system: SK-MEL-2 melanoma
MDA-MB-468 breast = test system: MDA-MB-468 breast
HOP-62 NSCLC = test system: HOP-62 NSCLC
SK-MEL-5 melanoma = test system: SK-MEL-5 melanoma
SN12C renal = test system: SN12C renal
UACC-257 melanoma = test system: UACC-257 melanoma
MALME-3M melanoma = test system: MALME-3M melanoma
BT-549 breast = test system: BT-549 breast
SR leukemia = test system: SR leukemia
NCI-H226 lung = test system: NCI-H226 lung
CCRF-CEM leukemia = test system: CCRF-CEM leukemia
HS 578T breast = test system: HS 578T breast
HOP-92 NSCLC = test system: HOP-92 NSCLC
KM12 colon = test system: KM12 colon
RXF 393 renal = test system: RXF 393 renal
IGROV1 ovarian = test system: IGROV1 ovarian
OVCAR-5 ovarian = test system: OVCAR-5 ovarian
SK-MEL-28 melanoma = test system: SK-MEL-28 melanoma
ACHN renal = test system: ACHN renal
MDA-MB-435 = test system: MDA-MB-435
SNB-75 CNS = test system: SNB-75 CNS
RPMI-8226 leukemia = test system: RPMI-8226 leukemia
HT29 colon = test system: HT29 colon
A498 renal = test system: A498 renal
MCF7 breast = test system: MCF7 breast
SNB-19 CNS = test system: SNB-19 CNS
M14 melanoma = test system: M14 melanoma
NCI-H460 lung = test system: NCI-H460 lung
MDA-MB-231 breast = test system: MDA-MB-231 breast
NCI-H23 lung = test system: NCI-H23 lung
UO-31 renal = test system: UO-31 renal
786-0 renal = test system: 786-0 renal
SF-295 CNS = test system: SF-295 CNS
SK-OV-3 ovarian = test system: SK-OV-3 ovarian
CAKI-1 renal = test system: CAKI-1 renal
SW-620 colon = test system: SW-620 colon
A549 NSCLC = test system: A549 NSCLC
SF-268 CNS = test system: SF-268 CNS
MOLT-4 leukemia = test system: MOLT-4 leukemia
EKVX NSCLC = test system: EKVX NSCLC
HCC-2998 colon = test system: HCC-2998 colon
TK-10 renal = test system: TK-10 renal
SF-539 CNS = test system: SF-539 CNS
NCI-H522 lung = test system: NCI-H522 lung
UACC-62 melanoma = test system: UACC-62 melanoma
OVCAR-8 ovarian = test system: OVCAR-8 ovarian
DU-145 prostate = test system: DU-145 prostate
HCT-116 colon = test system: HCT-116 colon
U251 CNS = test system: U251 CNS
T-47D breast = test system: T-47D breast
PC-3 prostate = test system: PC-3 prostate
HL-60(TB) leukemia = test system: HL-60(TB) leukemia
HCT-15 colon = test system: HCT-15 colon
NCI/ADR-RES ovarian = test system: NCI/ADR-RES ovarian

## COc1cccc(NC(=O)c2ccc(NC(=O)CCl)s2)c1
OVCAR-4 ovarian
  GI50: 39.2 µM
  TGI: > 100 µM
K-562 leukemia
  GI50: 16.4 µM
  TGI: > 100 µM
OVCAR-3 ovarian
  GI50: 16.7 µM
  TGI: 33.8 µM
LOX IMVI melanoma
  GI50: 11.4 µM
  TGI: 25.1 µM
COLO 205 colon
  GI50: 27.9 µM
  TGI: 70.8 µM
SK-MEL-2 melanoma
  GI50: 28.6 µM
  TGI: > 100 µM
MDA-MB-468 breast
  GI50: 14.2 µM
  TGI: 30.6 µM
HOP-62 NSCLC
  GI50: 56.7 µM
  TGI: > 100 µM
SK-MEL-5 melanoma
  GI50: 17.4 µM
  TGI: 34.6 µM
SN12C renal
  GI50: 16.1 µM
  TGI: 33.2 µM
UACC-257 melanoma
  GI50: 55.3 µM
  TGI: > 100 µM
MALME-3M melanoma
  GI50: 12.5 µM
  TGI: 28.5 µM
BT-549 breast
  GI50: 12.2 µM
  TGI: 29.1 µM
SR leukemia
  GI50: 4.92 µM
  TGI: 56.2 µM
NCI-H226 lung
  GI50: 15.8 µM
  TGI: 39.2 µM
CCRF-CEM leukemia
  GI50: 6.87 µM
  TGI: 51.2 µM
HS 578T breast
  GI50: 20.3 µM
  TGI: 61.1 µM
HOP-92 NSCLC
  GI50: 15.4 µM
  TGI: 34.7 µM
KM12 colon
  GI50: 21.2 µM
  TGI: 54.1 µM
RXF 393 renal
  GI50: 13.6 µM
  TGI: 36.9 µM
IGROV1 ovarian
  GI50: 16.8 µM
  TGI: 35.5 µM
OVCAR-5 ovarian
  GI50: 21 µM
  TGI: 46.8 µM
SK-MEL-28 melanoma
  GI50: 20.6 µM
  TGI: 52.6 µM
ACHN renal
  GI50: 17.4 µM
  TGI: 35.9 µM
MDA-MB-435
  GI50: 18.6 µM
  TGI: 60.9 µM
SNB-75 CNS
  GI50: 11.7 µM
  TGI: > 100 µM
RPMI-8226 leukemia
  GI50: 18.7 µM
  TGI: 46.8 µM
HT29 colon
  GI50: 20.3 µM
  TGI: 44.2 µM
A498 renal
  GI50: > 100 µM
  TGI: > 100 µM
MCF7 breast
  GI50: 20.1 µM
  TGI: 66.4 µM
SNB-19 CNS
  GI50: 21.8 µM
  TGI: 65.8 µM
M14 melanoma
  GI50: 16.3 µM
  TGI: 39.4 µM
NCI-H460 lung
  GI50: 20.8 µM
  TGI: 45.2 µM
MDA-MB-231 breast
  GI50: 15.6 µM
  TGI: 32.6 µM
NCI-H23 lung
  GI50: 17.2 µM
  TGI: 35.5 µM
UO-31 renal
  GI50: 13.7 µM
  TGI: 27.6 µM
786-0 renal
  GI50: 17.1 µM
  TGI: 33 µM
SF-295 CNS
  GI50: 46.6 µM
  TGI: > 100 µM
SK-OV-3 ovarian
  GI50: 27 µM
  TGI: 66.5 µM
CAKI-1 renal
  GI50: 16.1 µM
  TGI: 42 µM
SW-620 colon
  GI50: 13.4 µM
  TGI: 30.5 µM
A549 NSCLC
  GI50: 21.7 µM
  TGI: 53.9 µM
SF-268 CNS
  GI50: 25 µM
  TGI: > 100 µM
MOLT-4 leukemia
  GI50: 12.5 µM
  TGI: 55.8 µM
EKVX NSCLC
  GI50: 26.4 µM
  TGI: > 100 µM
HCC-2998 colon
  GI50: 47.8 µM
  TGI: > 100 µM
TK-10 renal
  GI50: > 100 µM
  TGI: > 100 µM
SF-539 CNS
  GI50: 16.7 µM
  TGI: 31 µM
NCI-H522 lung
  GI50: 13.9 µM
  TGI: 30.8 µM
UACC-62 melanoma
  GI50: 15.3 µM
  TGI: 29.2 µM
OVCAR-8 ovarian
  GI50: 18.5 µM
  TGI: 39.3 µM
DU-145 prostate
  GI50: 36.4 µM
  TGI: > 100 µM
HCT-116 colon
  GI50: 22.4 µM
  TGI: 88.9 µM
U251 CNS
  GI50: 16.8 µM
  TGI: 31.5 µM
T-47D breast
  GI50: 34.5 µM
  TGI: > 100 µM
PC-3 prostate
  GI50: 14.9 µM
  TGI: 34.9 µM
HL-60(TB) leukemia
  GI50: 17.4 µM
  TGI: 99 µM
HCT-15 colon
  GI50: 11.3 µM
  TGI: 40.5 µM

## C/C(=N/O)c1ccc(NC(=O)CSc2nnc(-c3ccc4nc(-c5ccc(Cl)cc5)[nH]c4c3)o2)cc1
OVCAR-4 ovarian
  GI50: 18.7 µM
  TGI: 42 µM
K-562 leukemia
  GI50: 3.39 µM
  TGI: > 100 µM
OVCAR-3 ovarian
  GI50: 18.8 µM
  TGI: 38 µM
LOX IMVI melanoma
  GI50: 1.94 µM
  TGI: 4.05 µM
COLO 205 colon
  GI50: 22.3 µM
  TGI: 66.1 µM
SK-MEL-2 melanoma
  GI50: 13.2 µM
  TGI: 27.8 µM
MDA-MB-468 breast
  GI50: 18.5 µM
  TGI: 33.7 µM
HOP-62 NSCLC
  GI50: 2.57 µM
  TGI: 8.69 µM
SK-MEL-5 melanoma
  GI50: 5.47 µM
  TGI: 18.2 µM
SN12C renal
  GI50: 4.04 µM
  TGI: 15.5 µM
UACC-257 melanoma
  GI50: 12.9 µM
  TGI: 29.8 µM
MALME-3M melanoma
  GI50: 1.93 µM
  TGI: 4.86 µM
BT-549 breast
  GI50: 4.36 µM
  TGI: 20.5 µM
NCI-H226 lung
  GI50: 13.5 µM
  TGI: 32.8 µM
CCRF-CEM leukemia
  GI50: 3.05 µM
  TGI: > 100 µM
HS 578T breast
  GI50: 3.63 µM
  TGI: 28.6 µM
HOP-92 NSCLC
  GI50: 3.12 µM
  TGI: 9.48 µM
KM12 colon
  GI50: 16.7 µM
  TGI: 43 µM
RXF 393 renal
  GI50: 2.38 µM
  TGI: 8.16 µM
IGROV1 ovarian
  GI50: 16.2 µM
  TGI: 30.5 µM
OVCAR-5 ovarian
  GI50: 17.8 µM
  TGI: 36.1 µM
SK-MEL-28 melanoma
  GI50: 2.23 µM
  TGI: 5.14 µM
ACHN renal
  GI50: 15.8 µM
  TGI: 35 µM
NCI/ADR-RES ovarian
  GI50: > 100 µM
  TGI: > 100 µM
MDA-MB-435
  GI50: 3.79 µM
  TGI: 15 µM
SNB-75 CNS
  GI50: 5.87 µM
  TGI: 22.8 µM
RPMI-8226 leukemia
  GI50: 13.6 µM
  TGI: 71.5 µM
HT29 colon
  GI50: 9.34 µM
  TGI: 29.8 µM
A498 renal
  GI50: 21.3 µM
  TGI: 37.1 µM
MCF7 breast
  GI50: 6.65 µM
  TGI: 26 µM
SNB-19 CNS
  GI50: 12 µM
  TGI: 25.7 µM
M14 melanoma
  GI50: 3.38 µM
  TGI: 15 µM
NCI-H460 lung
  GI50: 12.7 µM
  TGI: 32.4 µM
MDA-MB-231 breast
  GI50: 2.22 µM
  TGI: 5.35 µM
NCI-H23 lung
  GI50: 3.43 µM
  TGI: 16.7 µM
UO-31 renal
  GI50: 24.8 µM
  TGI: > 100 µM
786-0 renal
  GI50: 3.36 µM
  TGI: 11.8 µM
SF-295 CNS
  GI50: 12.9 µM
  TGI: 28.9 µM
SK-OV-3 ovarian
  GI50: 20.4 µM
  TGI: 39.4 µM
CAKI-1 renal
  GI50: 12.3 µM
  TGI: 28.5 µM
SW-620 colon
  GI50: 22 µM
  TGI: 59.5 µM
A549 NSCLC
  GI50: 8.19 µM
  TGI: 28.1 µM
SF-268 CNS
  GI50: 12.7 µM
  TGI: 30.5 µM
MOLT-4 leukemia
  GI50: 3.66 µM
  TGI: > 100 µM
EKVX NSCLC
  GI50: 18 µM
  TGI: 45.1 µM
HCC-2998 colon
  GI50: 43.2 µM
  TGI: > 100 µM
TK-10 renal
  GI50: 28.4 µM
  TGI: 56.4 µM
SF-539 CNS
  GI50: 10.2 µM
  TGI: 22.1 µM
NCI-H522 lung
  GI50: 3.48 µM
  TGI: 17.2 µM
UACC-62 melanoma
  GI50: 3.09 µM
  TGI: 11.1 µM
OVCAR-8 ovarian
  GI50: 3.29 µM
  TGI: 15.1 µM
DU-145 prostate
  GI50: 17.7 µM
  TGI: 33.3 µM
HCT-116 colon
  GI50: 4.78 µM
  TGI: 37.7 µM
U251 CNS
  GI50: 3.03 µM
  TGI: 8.87 µM
T-47D breast
  GI50: 17.3 µM
  TGI: 41.9 µM
PC-3 prostate
  GI50: 3.6 µM
  TGI: 16.3 µM
HL-60(TB) leukemia
  GI50: 13.8 µM
  TGI: > 100 µM
HCT-15 colon
  GI50: 56.9 µM
  TGI: > 100 µM
